In assay [1] the test system is rat aortic tissue. As to the kind of experiment: Ex vivo angiogenic sprout assay (rat aortic angiogenesis assay). Type of assay: cell-based, Sprague Dawley rats. The protocol: Explants from rat aortas were prepared by a modification of protocols previously described^42-54. In this model, the rat aortic endothelium exposed to a three dimensional matrix of ECM-derived proteins (Matrigel™), switches to a microvascular phenotype, generating branching networks of microvessels.
Briefly, thoracic aortas were excised from 2- to 4-month old Sprague Dawley rats and trimmed of remaining fat and connective tissue. Great care was taken at every stage to reduce physical damage of the aorta. Tissue was transferred to complete EBM-2 media (Cambrex) containing 2% FCS and all Singlequots™ (Cambrex) reagents except for heparin. Meanwhile, Matrigel™ (BD Biosciences) was allowed to cool on ice and once in a liquid form, 180 μL was pipetted into 48-well tissue culture plates (Nunc). The plates were incubated at 37° C. for 30 min to allow Matrigel™ to solidify.
Aortas were prepared by cutting 1 mm ring sections and then being bisected. Aortic segments were then carefully placed on top on the Matrigel™ in the centre of each well and once orientated as required, 60 μL of extra Matrigel™ was placed on top and the plate was returned to the incubator for a further 20 min. Each well was then supplemented with 1.0 mL media in the absence (control) or presence of test compounds usually at two concentrations within the range of 1-50 μM, depending on the particular compound/experiment. Cultures were replenished as appropriate every 48 h and scoring of microvessels was carried out at various timepoints up to 8-10 days. The extent of microvessel sprouting was determined by employing a scoring system from 0-5, where 0=no microvessels to 5=diffuse angiogenesis as previously described^45. Sprouting vessels were photographed using the 4× objective with an Olympus C-7070 camera and an adaptor for the eyepiece.
In some instances, to determine the potential toxicity of compounds in this assay, the viability of the tissue was assessed by withdrawing the compound/media from the culture on day 6 or 7 and adding complete media with VEGF (typically 10 ng/mL) for up to an additional 7 days. In the absence of toxicity, the viable tissue should sprout microvessels in response to the exogenous growth factor.
The inhibitory effect of compounds of the present invention on angiogenesis was assayed using the angiogenic sprout/microvessel formation (rat aortic) assay described above. Embedding of the rat aortic tissue in Matrigel™ in the absence of any inhibitor (control) yielded extensive angiogenic sprouting (as a score of 5 indicates diffuse angiogenesis) as illustrated by FIG. 1.

Assay [2] has as its system pooled normal human plasma. The experiment in a line: Anticoagulant activity, APTT. Conditions: 0.1 mg/mL in normal pooled human plasma. As to the method: APTT measurements were performed on a STAGO STA-Compact Coagulation Analyser using standard protocols according to the manufacturer's instructions. Unfractionated heparin (UFH) was used as a control.
Assay [3] relates to normal pooled human plasma. The experiment in a line: Anticoagulant activity, Heptest. Conditions: 0.1 mg/mL in normal pooled human plasma.
Assay [4] relates to HUVECs. The experiment in a line: Matrigel microtubule formation assay. Type of assay: cell-based, human. Conditions: 10 μM, relative to controls. As to the method: (§1) Medium for the proliferation studies was prepared using EGM with 2% FBS and gentamicin only. In a later study, complete EGM was used for the VEGF groups in an attempt to enhance the proliferative index of VEGF-stimulated groups. For the tube formation assay, complete medium was used with only heparin omitted. Compounds under investigation were weighed out from powder stocks and diluted in PBS to 10 mM stock solutions and stored at −80° C. For experiments, compounds were subsequently diluted in EBM-2 medium (supplemented with 2% FBS and gentamicin) to various working concentration as required.
The tube formation assay was performed essentially as described by Malinda et al., with modifications.^41 HUVECs in the fourth or fifth passage at 70-80% confluence were harvested and resuspended in Lonza endothelial growth medium (EGM2) containing all supplements as directed by manufacturer, except heparin, at a cell density of 4×10^5 cells per mL. For each set of triplicate wells, 200 μL of cells (4×10^5/mL) were treated with an equal volume of compound to obtain final concentrations of 10, 50 or 100 μM (thus ensuring 1×300 μL are available for each condition). A 100 μL aliquot of cells was then plated onto 96-well plates pre-coated with growth factor reduced Matrigel™ (50 μL for 30 min followed by a further 30 μL for 1 h) and incubated for 18-22 h. Tube formation was examined by phase-contrast microscopy and images were collected using an Olympus C5050 digital camera. Tube formation inhibition was quantitated manually from images by recording the total number of nodes connecting 3 or more tubules. Untreated HUVECs were used as a control for normal cell growth and tube formation in Matrigel.

Assay [5] has as its target FGF-1 (Homo sapiens, UniProt P05230). As to the kind of experiment: Growth factor binding assay (SPR solution affinity), FGF-1. The following applies: SPR, HBS-EP buffer, 25° C.; read-out: Kd FGF-1.
Assay [6] deals with FGF-2 (Homo sapiens, UniProt P09038). As to the kind of experiment: Growth factor binding assay (SPR solution affinity), FGF-2. The following applies: SPR, HBS-EP buffer containing 0.3 M NaCl, 25° C.; read-out: Kd FGF-2. The method, boiled down:
(§2)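 Kd measured by SPR solution affinity: fixed growth factor with varying ligand competing for heparin-coated sensorchip, 25 °C. Buffer HBS-EP pH 7.4 (150 mM NaCl) for FGF-1 and VEGF; FGF-2 with 0.3 M NaCl. Duplicate values averaged.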

Assay [7] addresses T1, VEGF (Homo sapiens, UniProt P15692).
T1 sequence (P15692 207-395): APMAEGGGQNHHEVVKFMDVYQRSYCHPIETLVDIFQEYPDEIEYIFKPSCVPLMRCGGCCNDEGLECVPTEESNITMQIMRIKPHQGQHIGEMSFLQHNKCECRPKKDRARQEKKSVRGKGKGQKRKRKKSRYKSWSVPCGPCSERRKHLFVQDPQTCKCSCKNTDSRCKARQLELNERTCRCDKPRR
The experiment in a line: Growth factor binding assay (SPR solution affinity), VEGF. The following applies: HBS-EP buffer, 25° C. In outline:
as §2

The target in assay [8] is T2, recombinant human heparanase (Homo sapiens, UniProt Q9Y251).
T2 sequence (Q9Y251 158-543 limits assumed): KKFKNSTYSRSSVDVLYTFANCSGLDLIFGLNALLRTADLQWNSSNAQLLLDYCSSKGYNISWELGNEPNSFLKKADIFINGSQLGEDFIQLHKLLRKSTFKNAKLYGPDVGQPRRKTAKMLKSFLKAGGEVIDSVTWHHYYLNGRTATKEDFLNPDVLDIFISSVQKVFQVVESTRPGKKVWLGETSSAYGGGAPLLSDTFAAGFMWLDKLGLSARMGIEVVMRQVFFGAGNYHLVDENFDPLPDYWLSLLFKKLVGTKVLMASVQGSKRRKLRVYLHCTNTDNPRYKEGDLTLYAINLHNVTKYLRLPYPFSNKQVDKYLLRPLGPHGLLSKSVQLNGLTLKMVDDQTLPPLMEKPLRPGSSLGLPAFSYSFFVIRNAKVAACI
T2 sequence (Q9Y251 36-109 limits assumed): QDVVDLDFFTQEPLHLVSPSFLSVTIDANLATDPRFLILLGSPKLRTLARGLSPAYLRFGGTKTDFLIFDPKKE
The experiment in a line: Heparanase inhibition assay (fondaparinux cleavage, WST-1). The following applies: read-out: Ki Heparanase; IC50 converted into Ki; fondaparinux 100 μM, pH 5.0. For orientation: Tetrazolium dyes change colour on reduction, which living cells bring about.

For assay [9], the system named is HUVEC proliferation induced by VEGF. As to the kind of experiment: Growth factor induced endothelial cell proliferation assay, VEGF. Type of assay: cell-based, human. The following applies: 72 h; read-out: VEGF (IC50) inhibition of HUVEC proliferation.
From the text: (§3) HUVEC cells were maintained and subcultured according to standard cell culture protocols essentially as described by Lonza. Briefly, cells were maintained in Lonza endothelial growth media (EGM) with recommended supplements and growth factors (VEGF, FGF2, EFG, IGF, hydrocortisone, fetal bovine serum (FBS), ascorbic acid, heparin and gentamicin). Cells were subcultured when they reached 70-80% confluence by trypsinisation and reseeding in fresh growth medium in new culture vessels at 2500 to 5000 cells/cm^2 of vessel surface area. Cell counts were performed using a haemocytometer and viable cells were visualized with trypan blue.
as §1
(§4) In the first of a series of experiments, the assay was further optimized by examining the cell density and growth factor concentration required to induce maximal proliferation by growth factors. Briefly, 100 μL of cells was added to each well at concentrations between 1-3×10^3 per well. Growth factors and test compounds were then added in 50 μL volumes at specified concentrations to obtain a final volume of 200 μL. Following incubation for 70 h, 20 μL of the CellTitre 96® Aqueous One Solution Cell Proliferation Assay (Promega) was added for 2 h prior to reading the absorbance at 490 nm to obtain OD values.

For assay [10], the system named is HUVEC proliferation induced by FGF-2. As to the kind of experiment: Growth factor induced endothelial cell proliferation assay, FGF-2. Conditions: 72 h; read-out: FGF-2 (IC50) inhibition of HUVEC proliferation. Type of assay: cell-based, human.
From the text: as §3, §1, §4

Assay [11] concerns HUVEC proliferation induced by FGF-1. As to the kind of experiment: Growth factor induced endothelial cell proliferation assay, FGF-1. It counts as cell-based, human. Conditions: 72 h; read-out: FGF-1 (IC50) inhibition of HUVEC proliferation.
From the text: as §3, §1, §4

The source of these data is patent US20150065440A1 (Progen Pharmaceuticals Limited, priority 2007, published 2015).

Each structure is given as a SMILES string.

The term inhibition denotes the share of the control response that was lost under treatment. By Kd is commonly meant the free concentration of one partner at which half of the binding sites on the other are occupied at equilibrium, for simple one-to-one binding. The Ki is the dissociation constant of the complex between target and ligand, obtained from inhibition or displacement.

FGF-2, sequence (P09038 143-288, species assumed): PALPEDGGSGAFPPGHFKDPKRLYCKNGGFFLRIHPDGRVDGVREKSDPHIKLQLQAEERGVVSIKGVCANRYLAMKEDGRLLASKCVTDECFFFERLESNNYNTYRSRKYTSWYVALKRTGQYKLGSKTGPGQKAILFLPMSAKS
FGF-1, sequence (P05230 whole entry, species assumed): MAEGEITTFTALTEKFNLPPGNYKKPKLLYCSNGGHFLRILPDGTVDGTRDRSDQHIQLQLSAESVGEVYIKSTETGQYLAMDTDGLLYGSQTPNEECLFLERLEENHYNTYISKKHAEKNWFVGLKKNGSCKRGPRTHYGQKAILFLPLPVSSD

As for `CCCCCCCCCCCCCCCCCC(=O)NCCCO[C@@H]1O[C@H](COS(=O)(=O)[O-])[C@@H](O[C@H]2O[C@H](COS(=O)(=O)[O-])[C@@H](O[C@H]3O[C@H](COS(=O)(=O)[O-])[C@@H](OS(=O)(=O)[O-])[C@H](OS(=O)(=O)[O-])[C@H]3OS(=O)(=O)[O-])[C@H](OS(=O)(=O)[O-])[C@H]2OS(=O)(=O)[O-])[C@H](OS(=O)(=O)[O-])[C@H]1OS(=O)(=O)[O-].[Na+].[Na+].[Na+].[Na+].[Na+].[Na+].[Na+].[Na+].[Na+].[Na+]` [Compound 123, 3-Stearamidopropyl 2,3,4,6-tetra-O-sulfo-α-D-glucopyranosyl-(1→4)-2,3,6-tri-O-sulfo-α-D-glucopyranosyl-(1→4)-2,3,6-tri-O-sulfo-β-D-glucopyranoside, decasodium salt], the inhibition at 10 µM in assay [1] (Rattus norvegicus) was 23%; in assay [4] (Homo sapiens, HUVEC, read-out: Microtubule Formation % inhibition at 10 μM), 33%. In assay [2], this molecule came in with an APTT of 51.1 s. Further, the Heptest in [3] was determined as 24.9 s. Besides, the Kd in assay [5] came out at 32.2 ± 2.3 nM; in assay [6], 530 ± 50 nM; in [7] it was 380 ± 110 nM. For the same molecule, the Ki in assay [8] is 11.3 ± 0.4 nM.
On to `CC(C)CCC[C@@H](C)[C@H]1CC[C@H]2[C@@H]3CCC4CC(OCCCNC(=S)N[C@@H]5O[C@H](COS(=O)(=O)[O-])[C@@H](O[C@H]6O[C@H](COS(=O)(=O)[O-])[C@@H](O[C@H]7O[C@H](COS(=O)(=O)[O-])[C@@H](OS(=O)(=O)[O-])[C@H](OS(=O)(=O)[O-])[C@H]7OS(=O)(=O)[O-])[C@H](OS(=O)(=O)[O-])[C@H]6OS(=O)(=O)[O-])[C@H](OS(=O)(=O)[O-])[C@H]5OS(=O)(=O)[O-])CC[C@]4(C)[C@H]3CC[C@]12C.[Na+].[Na+].[Na+].[Na+].[Na+].[Na+].[Na+].[Na+].[Na+].[Na+]` (stereo partly drawn) [Compound 139, 1-[(Cholestan-3-yloxy)propyl]-3-[2,3,4,6-tetra-O-sulfo-α-D-glucopyranosyl-(1→4)-2,3,6-tri-O-sulfo-α-D-glucopyranosyl-(1→4)-2,3,6-tri-O-sulfo-β-D-glucopyranoside]thiourea, decasodium salt], for which the “% Inhibition of Angiogenesis (10 μM)” value in [1] (10 μM) turned out to be 92%. Moreover, the IC50 came out at 2310 nM in assay [9], 1500 nM in assay [10] and 2160 nM in assay [11]. For the same molecule, in assay [4], the “Microtubule Formation % inhibition at 10 μM” value is reported as 36%. The Kd in assay [5] stood at 72 ± 12 nM; in assay [6], 880 ± 110 nM; in assay [7] it was 379 ± 13 nM.
